Measurements taken from the supplement of paper PMC10307832.

Experiments:
Assay in all cases: relative viability (nuclei count vs DMSO), 5 days (fraction); higher = more cells survive
Carfilzomib + Decitabine = compound: CC(C)C[C@H](NC(=O)[C@H](CCc1ccccc1)NC(=O)CN1CCOCC1)C(=O)N[C@@H](Cc1ccccc1)C(=O)N[C@@H](CC(C)C)C(=O)[C@@]1(C)CO1 [Carfilzomib] + Nc1ncn([C@H]2C[C@H](O)[C@@H](CO)O2)c(=O)n1 [Decitabine] (partner 2 µM)
In short: (§1)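 Cells from lung cancer lines were seeded into 1536-well plates and, one day later, dosed by pin tool. Treatments were either a single drug or a fixed dose of an anchor drug with five library-drug doses (not always all listed) in √10 steps. After 5 days, nuclei were stained in a one-step fixation (final 0.05% Triton X-100, 1% formaldehyde, 1 ug/ml Hoechst) and counted on 4× images, and relative viability is the treated-to-vehicle nuclei ratio, as the median of duplicate plates.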

Crizotinib + Trametinib = compound: C[C@@H](Oc1cc(-c2cnn(C3CCNCC3)c2)cnc1N)c1c(Cl)ccc(F)c1Cl [Crizotinib] + CC(=O)Nc1cccc(-n2c(=O)n(C3CC3)c(=O)c3c(Nc4ccc(I)cc4F)n(C)c(=O)c(C)c32)c1 [Trametinib] (partner 0.02 µM)
In short: as §1

Crizotinib + Palbociclib = compound: C[C@@H](Oc1cc(-c2cnn(C3CCNCC3)c2)cnc1N)c1c(Cl)ccc(F)c1Cl [Crizotinib] + CC(=O)c1c(C)c2cnc(Nc3ccc(N4CCNCC4)cn3)nc2n(C2CCCC2)c1=O [Palbociclib] (partner 0.5 µM)
In short: as §1

Olaparib + Trametinib = compound: O=C(c1cc(Cc2n[nH]c(=O)c3ccccc23)ccc1F)N1CCN(C(=O)C2CC2)CC1 [Olaparib] + CC(=O)Nc1cccc(-n2c(=O)n(C3CC3)c(=O)c3c(Nc4ccc(I)cc4F)n(C)c(=O)c(C)c32)c1 [Trametinib] (partner 0.02 µM)
In short: as §1

SW 900
relative viability (Carfilzomib + Decitabine; first compound 0.003162 µM): 0.5
relative viability (Carfilzomib + Decitabine; first compound 0.01 µM): 0.344
relative viability (Carfilzomib + Decitabine; first compound 0.03162 µM): 0.197
relative viability (Carfilzomib + Decitabine; first compound 0.1 µM): 0.22
relative viability (Crizotinib + Trametinib; first compound 0.01 µM): 0.907
relative viability (Crizotinib + Trametinib; first compound 0.03162 µM): 0.9
relative viability (Crizotinib + Trametinib; first compound 0.1 µM): 0.752
relative viability (Crizotinib + Trametinib; first compound 0.3162 µM): 0.938
relative viability (Crizotinib + Trametinib; first compound 1 µM): 0.614
relative viability (Crizotinib + Palbociclib; first compound 0.01 µM): 0.544
relative viability (Crizotinib + Palbociclib; first compound 0.03162 µM): 0.453
relative viability (Crizotinib + Palbociclib; first compound 0.1 µM): 0.497
relative viability (Crizotinib + Palbociclib; first compound 0.3162 µM): 0.546
relative viability (Crizotinib + Palbociclib; first compound 1 µM): 0.514
relative viability (Olaparib + Trametinib; first compound 0.08 µM): 0.867
relative viability (Olaparib + Trametinib; first compound 0.253 µM): 0.758
relative viability (Olaparib + Trametinib; first compound 2.53 µM): 0.85
relative viability (Olaparib + Trametinib; first compound 8 µM): 0.815

SW 1573
relative viability (Carfilzomib + Decitabine; first compound 0.001 µM): 0.551
relative viability (Carfilzomib + Decitabine; first compound 0.003162 µM): 0.52
relative viability (Carfilzomib + Decitabine; first compound 0.01 µM): 0.297
relative viability (Carfilzomib + Decitabine; first compound 0.03162 µM): 0.0743
relative viability (Carfilzomib + Decitabine; first compound 0.1 µM): 0.0554
relative viability (Crizotinib + Trametinib; first compound 0.01 µM): 0.531
relative viability (Crizotinib + Trametinib; first compound 0.03162 µM): 0.473
relative viability (Crizotinib + Trametinib; first compound 0.1 µM): 0.594
relative viability (Crizotinib + Trametinib; first compound 0.3162 µM): 0.567
relative viability (Crizotinib + Trametinib; first compound 1 µM): 0.615
relative viability (Crizotinib + Palbociclib; first compound 0.01 µM): 0.373
relative viability (Crizotinib + Palbociclib; first compound 0.03162 µM): 0.368
relative viability (Crizotinib + Palbociclib; first compound 0.1 µM): 0.39
relative viability (Crizotinib + Palbociclib; first compound 0.3162 µM): 0.417
relative viability (Crizotinib + Palbociclib; first compound 1 µM): 0.411
relative viability (Olaparib + Trametinib; first compound 0.08 µM): 0.591
relative viability (Olaparib + Trametinib; first compound 0.253 µM): 0.565
relative viability (Olaparib + Trametinib; first compound 2.53 µM): 0.515
relative viability (Olaparib + Trametinib; first compound 8 µM): 0.473

UMC-11
relative viability (Carfilzomib + Decitabine; first compound 0.001 µM): 0.603
relative viability (Carfilzomib + Decitabine; first compound 0.003162 µM): 0.609
relative viability (Carfilzomib + Decitabine; first compound 0.01 µM): 0.54
relative viability (Carfilzomib + Decitabine; first compound 0.03162 µM): 0.819
relative viability (Carfilzomib + Decitabine; first compound 0.1 µM): 0.459
relative viability (Crizotinib + Trametinib; first compound 0.01 µM): 0.7
relative viability (Crizotinib + Trametinib; first compound 0.03162 µM): 0.751
relative viability (Crizotinib + Trametinib; first compound 0.1 µM): 0.683
relative viability (Crizotinib + Trametinib; first compound 0.3162 µM): 0.227
relative viability (Crizotinib + Trametinib; first compound 1 µM): 0.985
relative viability (Crizotinib + Palbociclib; first compound 0.01 µM): 0.329
relative viability (Crizotinib + Palbociclib; first compound 0.03162 µM): 0.336
relative viability (Crizotinib + Palbociclib; first compound 0.1 µM): 0.307
relative viability (Crizotinib + Palbociclib; first compound 1 µM): 0.398
relative viability (Olaparib + Trametinib; first compound 0.08 µM): 0.651
relative viability (Olaparib + Trametinib; first compound 0.253 µM): 0.644
relative viability (Olaparib + Trametinib; first compound 2.53 µM): 0.59
relative viability (Olaparib + Trametinib; first compound 8 µM): 0.376
